Patent publication US7709636B2, “Pyrazole sulfonylurea compound and herbicide” (Nissan Chemical Industries, Ltd., priority 2004, dated 2010)

How the values were obtained:
corn (Zea mays) [1] = assay: Herbicidal effect test by foliage treatment; type: in vivo; details: 1.6 g/a; foliage treatment after growth of 14 days; 3 weeks after treatment
Source text: (§1) Herbicidal Effect Test by Foliage Treatment
(§2) Sterilized diluvial soil was placed in a plastic box having a size of length 21 cm, width 13 cm and depth 7 cm, seeds of Echinochloa crus-galli, Digitaria adscendes, Setaria viridis, Avena fatua, Black-grass, Abutilon avicennae, Ambrosia elatior, Amaranthus retroflexus, Chenopodium album, Polygonum blumei, Stellaria media, Zea mays, Glycine max, Oryza sativa, Triticum aestivum and Beta vulgaris were sown interspatially, covered with about 1.5 cm of soil, and then the plants were grown by putting the box in a green house at 25 to 30° C. After growth of 14 days, the wettable powder of the present invention prepared according to Formulation Example 1 was diluted with water so as to give a predetermined formulation amount, and the foliage part was uniformly treated with the diluted wettable powder by use of a small-sized spray. The herbicidal effect for each plant was investigated 3 weeks after treatment with the herbicide according to the criteria indicated in Test Example 1.

Setaria viridis [2] = assay: Herbicidal effect test by foliage treatment; type: in vivo; details: 1.6 g/a; foliage treatment after growth of 14 days; 3 weeks after treatment
Source text: as §1, §2

Polygonum blumei [3] = assay: Herbicidal effect test by foliage treatment; type: in vivo; details: 1.6 g/a; foliage treatment after growth of 14 days; 3 weeks after treatment
Source text: as §1, §2

[4] = test system: Triticum aestivum (wheat); assay: Herbicidal effect test by foliage treatment; type: in vivo; details: 1.6 g/a; foliage treatment after growth of 14 days; 3 weeks after treatment
Source text: as §1, §2

Digitaria adscendes [5] = assay: Herbicidal effect test by foliage treatment; type: in vivo; details: 1.6 g/a; foliage treatment after growth of 14 days; 3 weeks after treatment
Source text: as §1, §2

Amaranthus retroflexus [6] = assay: Herbicidal effect test by foliage treatment; type: in vivo; details: 1.6 g/a; foliage treatment after growth of 14 days; 3 weeks after treatment
Source text: as §1, §2

Echinochloa crus-galli [7] = assay: Herbicidal effect test by foliage treatment; type: in vivo; details: 1.6 g/a; foliage treatment after growth of 14 days; 3 weeks after treatment
Source text: as §1, §2

Avena fatua = assay: Herbicidal effect test by foliage treatment; type: in vivo; details: 1.6 g/a; foliage treatment after growth of 14 days; 3 weeks after treatment
Source text: as §1, §2

Abutilon avicennae [8] = assay: Herbicidal effect test by foliage treatment; type: in vivo; details: 1.6 g/a; foliage treatment after growth of 14 days; 3 weeks after treatment
Source text: as §1, §2

Stellaria media [9] = assay: Herbicidal effect test by foliage treatment; type: in vivo; details: 1.6 g/a; foliage treatment after growth of 14 days; 3 weeks after treatment
Source text: as §1, §2

Beta vulgaris (beet) [10] = assay: Herbicidal effect test by foliage treatment; type: in vivo; details: 1.6 g/a; foliage treatment after growth of 14 days; 3 weeks after treatment
Source text: as §1, §2

soybean (Glycine max) [11] = assay: Herbicidal effect test by foliage treatment; type: in vivo; details: 1.6 g/a; foliage treatment after growth of 14 days; 3 weeks after treatment
Source text: as §1, §2

Chenopodium album [12] = assay: Herbicidal effect test by foliage treatment; type: in vivo; details: 1.6 g/a; foliage treatment after growth of 14 days; 3 weeks after treatment
Source text: as §1, §2

Black-grass = assay: Herbicidal effect test by foliage treatment; type: in vivo; details: 1.6 g/a; foliage treatment after growth of 14 days; 3 weeks after treatment
Source text: as §1, §2

Ambrosia elatior [13] = assay: Herbicidal effect test by foliage treatment; type: in vivo; details: 1.6 g/a; foliage treatment after growth of 14 days; 3 weeks after treatment
Source text: as §1, §2

direct sown rice [14] = assay: Herbicidal effect test by foliage treatment; type: in vivo, Oryza sativa; details: 1.6 g/a; foliage treatment after growth of 14 days; 3 weeks after treatment
Source text: as §1, §2

corn (Zea mays) [15] = assay: Herbicidal effect test by soil treatment; type: in vivo; details: 1.6 g/a, 3 weeks after treatment
Source text: (§3) Herbicidal Effect Test by Soil Treatment
(§4) Sterilized diluvial soil was placed in a plastic box having a size of length 21 cm, width 13 cm and depth 7 cm, seeds Echinochloa crus-galli, Digitaria adscendes, Setaria viridis, Avena fatua, Black-grass, Abutilon avicennae, Ambrosia elatior, Amaranthus retroflexus, Chenopodium album, Polygonum blumei, Stellaria media, Zea mays (corn), Glycine max (soybean), Oryza sativa (rice), Triticum aestivum (wheat) and Beta vulgaris (beat) were sown interspatially, covered with about 1.5 cm of soil, and then the wettable powder of the present invention prepared according to Formulation Example 1 was diluted with water so as to give a predetermined formulation amount, and the surface of the soil was uniformly treated with the diluted wettable powder by use of a small-sized spray. The herbicidal effect for each plant was investigated 3 weeks after treatment with the herbicide according to the criteria indicated in Test Example 1.

Setaria viridis [16] = assay: Herbicidal effect test by soil treatment; type: in vivo; details: 1.6 g/a, 3 weeks after treatment
Source text: as §3, §4

Polygonum blumei [17] = assay: Herbicidal effect test by soil treatment; type: in vivo; details: 1.6 g/a, 3 weeks after treatment
Source text: as §3, §4

Digitaria adscendes [18] = assay: Herbicidal effect test by soil treatment; type: in vivo; details: 1.6 g/a, 3 weeks after treatment
Source text: as §3, §4

Amaranthus retroflexus [19] = assay: Herbicidal effect test by soil treatment; type: in vivo; details: 1.6 g/a, 3 weeks after treatment
Source text: as §3, §4

Echinochloa crus-galli [20] = assay: Herbicidal effect test by soil treatment; type: in vivo; details: 1.6 g/a, 3 weeks after treatment
Source text: as §3, §4

Abutilon avicennae [21] = assay: Herbicidal effect test by soil treatment; type: in vivo; details: 1.6 g/a, 3 weeks after treatment
Source text: as §3, §4

Stellaria media [22] = assay: Herbicidal effect test by soil treatment; type: in vivo; details: 1.6 g/a, 3 weeks after treatment
Source text: as §3, §4

Beta vulgaris (beet) [23] = assay: Herbicidal effect test by soil treatment; type: in vivo; details: 1.6 g/a, 3 weeks after treatment
Source text: as §3, §4

soybean (Glycine max) [24] = assay: Herbicidal effect test by soil treatment; type: in vivo; details: 1.6 g/a, 3 weeks after treatment
Source text: as §3, §4

Chenopodium album [25] = assay: Herbicidal effect test by soil treatment; type: in vivo; details: 1.6 g/a, 3 weeks after treatment
Source text: as §3, §4

Ambrosia elatior [26] = assay: Herbicidal effect test by soil treatment; type: in vivo; details: 1.6 g/a, 3 weeks after treatment
Source text: as §3, §4

Echinochloa crus-galli [27] = assay: Herbicidal effect test in submerged condition by treatment before weed-generation (1); type: in vivo; details: 0.64 g/a, water surface treated on day of sowing, 3 weeks after treatment
Source text: (§5) Herbicidal Effect Test in Submerged Condition by Treatment Before Weed-Generation (1)
(§6) After alluvial soil was placed in a styrol cup of 1/30000 are, water was poured therein and mixed, and adjusted to a submerged condition of water depth 4 cm. After seeds of Echinochloa crus-galli, Scirpus juncoides and Monochoria vaginalis were sown in the cup, rice seedlings at 2.5th leaf stage were transplanted. On the day when the seeds were sown, the wettable powder of the present invention prepared according to Formulation Example 1 was diluted with water so as to give a predetermined formulation amount, and the surface of the water was treated with the diluted wettable powder. The plants were grown by putting the cup in a green house at 25 to 30° C., and investigated on herbicidal effect against each weed 3 weeks after treatment with the herbicide according to the following criteria.
(§7) 5 Herbicidal rate 90% or more (almost complete death)
(§8) 4 Herbicidal rate 70% or more and less than 90%
(§9) 3 Herbicidal rate 40% or more and less than 70%
(§10) 2 Herbicidal rate 20% or more and less than 40%
(§11) 1 Herbicidal rate 5% or more and less than 20%
(§12) 0 Herbicidal rate 5% or less (little effect)

Monochoria vaginalis [28] = assay: as above; type: in vivo; details: 0.64 g/a, water surface treated on day of sowing, 3 weeks after treatment
Source text: as §5, §6, §7, §8, §9, §10, §11, §12

Scirpus juncoides [29] = assay: as above; type: in vivo; details: 0.64 g/a, water surface treated on day of sowing, 3 weeks after treatment
Source text: as §5, §6, §7, §8, §9, §10, §11, §12

direct sown rice [30] = assay: Herbicidal effect test by soil treatment; type: in vivo, Oryza sativa; details: 1.6 g/a, 3 weeks after treatment
Source text: as §3, §4

Echinochloa crus-galli [31] = assay: Herbicidal effect test in submerged condition by treatment during weed-growth stage (1); type: in vivo; details: 0.64 g/a, treated at 1st to 2nd leaf stage, 3 weeks after treatment
Protocol: (§13) Herbicidal Effect Test in Submerged Condition by Treatment During Weed-Growth Stage (1) After alluvial soil was placed in a styrol cup of 1/30000 are, water was poured therein and mixed, and adjusted to a submerged condition of water depth 4 cm. After seeds of Echinochloa crus-galli, Scirpus juncoides and Monochoria vaginalis were sown in the cup, the plants were grown by putting the cup in a green house at 25 to 30° C. When Echinochloa crus-galli, Scirpus juncoides and Monochoria vaginalis reached 1st to 2nd leaf stage, the wettable powder of the present invention prepared according to Formulation Example 1 was diluted with water so as to give a predetermined formulation amount, and the surface of the water was treated with the diluted wettable powder. The herbicidal effect for each plant was investigated 3 weeks after treatment with the herbicide according to the criteria indicated in Test Example 1.

Monochoria vaginalis [32] = assay: as above; type: in vivo; details: 0.64 g/a, treated at 1st to 2nd leaf stage, 3 weeks after treatment
Protocol: as §13

Scirpus juncoides [33] = assay: as above; type: in vivo; details: 0.64 g/a, treated at 1st to 2nd leaf stage, 3 weeks after treatment
Protocol: as §13

COc1cc(OC)nc(NC(=O)NS(=O)(=O)c2c(C3=NOCC(C)O3)c(C)nn2C)n1 (centres unmarked) [Compound 5, N-((4,6-dimethoxypyrimidin-2-yl)aminocarbonyl)-1,3-dimethyl-4-(5-methyl-5H,6H-1,4,2-dioxadin-3-yl)pyrazole-5-sulfonamide]
herbicidal effect, b: corn (Zea mays) (corn (Zea mays) [1]): 5 (Herbicidal rate 90% or more (almost complete death))
herbicidal effect, E: Setaria viridis (Setaria viridis [2]): 4 (Herbicidal rate 70% or more and less than 90%)
herbicidal effect, L: Polygonum blumei (Polygonum blumei [3]): 5 (Herbicidal rate 90% or more (almost complete death))
herbicidal effect, e: Triticum aestivum (wheat) [4]: 5 (Herbicidal rate 90% or more (almost complete death))
herbicidal effect, D: Digitaria adscendes (Digitaria adscendes [5]): 5 (Herbicidal rate 90% or more (almost complete death))
herbicidal effect, J: Amaranthus retroflexus (Amaranthus retroflexus [6]): 5 (Herbicidal rate 90% or more (almost complete death))
herbicidal effect, A: Echinochloa crus-galli (Echinochloa crus-galli [7]): 5 (Herbicidal rate 90% or more (almost complete death))
herbicidal effect, F: Avena fatua (Avena fatua): 5 (Herbicidal rate 90% or more (almost complete death))
herbicidal effect, H: Abutilon avicennae (Abutilon avicennae [8]): 5 (Herbicidal rate 90% or more (almost complete death))
herbicidal effect, M: Stellaria media (Stellaria media [9]): 5 (Herbicidal rate 90% or more (almost complete death))
herbicidal effect, f: Beta vulgaris (beet) (Beta vulgaris (beet) [10]): 5 (Herbicidal rate 90% or more (almost complete death))
herbicidal effect, c: soybean (Glycine max) (soybean (Glycine max) [11]): 5 (Herbicidal rate 90% or more (almost complete death))
herbicidal effect, K: Chenopodium album (Chenopodium album [12]): 5 (Herbicidal rate 90% or more (almost complete death))
herbicidal effect, G: Black-grass (Black-grass): 5 (Herbicidal rate 90% or more (almost complete death))
herbicidal effect, I: Ambrosia elatior (Ambrosia elatior [13]): 5 (Herbicidal rate 90% or more (almost complete death))
herbicidal effect, d: direct sown rice (direct sown rice [14]): 3 (Herbicidal rate 40% or more and less than 70%)
herbicidal effect, b: corn (Zea mays) (corn (Zea mays) [15]): 5 (Herbicidal rate 90% or more (almost complete death))
herbicidal effect, E: Setaria viridis (Setaria viridis [16]): 4 (Herbicidal rate 70% or more and less than 90%)
herbicidal effect, L: Polygonum blumei (Polygonum blumei [17]): 5 (Herbicidal rate 90% or more (almost complete death))
herbicidal effect, D: Digitaria adscendes (Digitaria adscendes [18]): 5 (Herbicidal rate 90% or more (almost complete death))
herbicidal effect, J: Amaranthus retroflexus (Amaranthus retroflexus [19]): 5 (Herbicidal rate 90% or more (almost complete death))
herbicidal effect, A: Echinochloa crus-galli (Echinochloa crus-galli [20]): 5 (Herbicidal rate 90% or more (almost complete death))
herbicidal effect, H: Abutilon avicennae (Abutilon avicennae [21]): 4 (Herbicidal rate 70% or more and less than 90%)
herbicidal effect, M: Stellaria media (Stellaria media [22]): 5 (Herbicidal rate 90% or more (almost complete death))
herbicidal effect, f: Beta vulgaris (beet) (Beta vulgaris (beet) [23]): 5 (Herbicidal rate 90% or more (almost complete death))
herbicidal effect, c: soybean (Glycine max) (soybean (Glycine max) [24]): 5 (Herbicidal rate 90% or more (almost complete death))
herbicidal effect, K: Chenopodium album (Chenopodium album [25]): 5 (Herbicidal rate 90% or more (almost complete death))
herbicidal effect, I: Ambrosia elatior (Ambrosia elatior [26]): 5 (Herbicidal rate 90% or more (almost complete death))
herbicidal effect, A: Echinochloa crus-galli (Echinochloa crus-galli [27]): 5 (Herbicidal rate 90% or more (almost complete death))
herbicidal effect, C: Monochoria vaginalis (Monochoria vaginalis [28]): 5 (Herbicidal rate 90% or more (almost complete death))
herbicidal effect, B: Scirpus juncoides (Scirpus juncoides [29]): 5 (Herbicidal rate 90% or more (almost complete death))
herbicidal effect, d: direct sown rice (direct sown rice [30]): 5 (Herbicidal rate 90% or more (almost complete death))
herbicidal effect, A: Echinochloa crus-galli (Echinochloa crus-galli [31]): 5 (Herbicidal rate 90% or more (almost complete death))
herbicidal effect, C: Monochoria vaginalis (Monochoria vaginalis [32]): 5 (Herbicidal rate 90% or more (almost complete death))
herbicidal effect, B: Scirpus juncoides (Scirpus juncoides [33]): 5 (Herbicidal rate 90% or more (almost complete death))
